PMC3317823, “Identification and characterization of a novel thermostable pyrethroid-hydrolyzing enzyme isolated through metagenomic approach” (Microbial Cell Factories, 2012)

Target: Sys410 (uncultured bacterium, UniProt H9CDG2)
Experiment: spectrophotometric p-nitrophenol release at […] nm, Michaelis-Menten fit
Settings: pH 6.5, potassium phosphate 50 mM, 55°C, gum arabic and Triton X-100 in substrate solution

Chain of Sys410 (H9CDG2 1-280 limits assumed): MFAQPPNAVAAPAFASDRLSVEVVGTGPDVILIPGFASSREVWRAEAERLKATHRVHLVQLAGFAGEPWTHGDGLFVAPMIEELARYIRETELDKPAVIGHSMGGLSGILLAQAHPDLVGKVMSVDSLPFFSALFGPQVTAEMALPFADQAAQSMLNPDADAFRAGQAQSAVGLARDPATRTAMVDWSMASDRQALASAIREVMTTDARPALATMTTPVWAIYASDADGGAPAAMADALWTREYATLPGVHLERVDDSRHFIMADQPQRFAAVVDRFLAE

SMILES	Km (paper labels caproate as C8, chain length uncertain)	Km (paper labels caprylate as C6, chain length uncertain)
CCCCCC(=O)Oc1ccc([N+](=O)[O-])cc1 [C8, ρ-nitrophenyl caproate]	57.6 ± 1.9 µM	–
CCCCCCCC(=O)Oc1ccc([N+](=O)[O-])cc1 [C6, ρ-nitrophenyl caprylate]	–	33.2 ± 2.1 µM
